Measurements taken from patent publication US5545399A, “Cosmetic composition” (Chesebrough-Pond's USA Co., priority 1993, dated 1996).
Where two headings read alike, the source gives them in different places.

What was measured:
[1] = tested on: Melanoma cells; experiment: in vitro; type: cell-based, mammalian
Description: (§1) Pigment producing cells derived from a mammalian melanoma are grown in culture by standard methods. Preferred cell lines are B16 or S-91 cells, but other lines or primary mouse or human melanocytes can be used.
(§2) Melanoma cells are grown in cell culture medium such as RPMI 1640 (GIBCO) supplemented with fetal calf serum and glutamine to approximately 1/3 confluence. The active is dissolved in culture medium, the pH adjusted as required and sterile filtered. The solution is then added to the cells.
(§3) Cell viability in the presence of the inhibitor is tested using neutral red (3-amino-7-dimethylamino-2-methyl phenazine hydrochloride) a water soluble vital dye which passes through the intact plasma membrane and becomes concentrated in lysosomes of viable cells. For any culture, the amount of dye taken up is proportional to the number of viable cells and agents that damage cell and lysosomal membranes inhibit dye incorporation.
(§4) The cells are incubated in 50 μg/ml neutral red solution for 3 hours at 37° C. in 5% CO2 in air. The solution is aspirated, the cells washed once in saline and to them added a solvent (50% H2 O, 49% ethanol, 1% acetic acid) to solubilise the dye. The amount of neutral red dye is quantified by measuring absorbance at 540 nm.
(§5) The above procedure was used to assess the ability of compositions of (a) dihydrophloretin alone and (b) dihydrophloretin plus retinol to reduce the amount of melanin produced.
(§6) The results for melanin production were calculated as percentages of control which contained medium alone. There was no effect on viability at the concentrations of actives reported.

[2] = in vitro; type: cell-based, mammalian; conditions: melanoma cells
Description: as §1, §2, §3, §4, §5, §6

[3] = tested on: Pigment producing cells derived from a mammalian melanoma; experiment: In vitro melanocyte cell culture: melanin production (absorbance at 540 nm of melanin released into the medium); type: cell-based; conditions: for activity at 300 µM: dihydrophloretin 0.3 mM; for activity at 100 µM: dihydrophloretin 0.1 mM; for activity at 230 µM: dihydrophloretin 0.23 mM; for melanin production as percentage of control / % pigmentation: 5760 min
Description: Test method--In vitro melanocyte cell culture Pigment producing cells derived from a mammalian melanoma are grown in culture by standard methods. Preferred cell lines are B16 or S-91 cells, but other lines or primary mouse or human melanocytes can be used. Melanoma cells are grown in cell culture medium such as RPMI 1640 (GIBCO) supplemented with fetal calf serum and glutamine to approximately 1/3 confluence. The active is dissolved in culture medium, the pH adjusted as required and sterile filtered. The solution is then added to the cells. The cells are cultured for a further period of 4 days and the amount of melanin produced assayed by measuring the absorbance at 540 nm of the melanin released into the medium. The above procedure was used to assess the ability of compositions of (a) dihydrophloretin alone and (b) dihydrophloretin plus retinol to reduce the amount of melanin produced.

[4] = Melanocyte, 96 h, Table 4, trans retinol 0, read-out: melanin production as percentage of control
[5] = Melanocyte, 96 h, Table 5, retinol 0, n 3, read-out: % pigmentation

## Oc1ccc(CCC(O)c2c(O)cc(O)cc2O)cc1 (stereo not shown) [Dihydrophloretin, dihydrophloretin]
[1]
  cell viability: No adverse effects
[2]
  viability at 100 µM: 100%
  viability at 170 µM: 100%
  viability at 230 µM: 100%
  viability at 300 µM: 100%
[3]; Melanocyte, 96 h, Table 3, dihydrophloretin 0.01 mM, 4 days, read-out: % of control melanin production
  activity at 10 µM: 100%
[3]; Melanocyte, 96 h, Table 3, dihydrophloretin 0.03 mM, 4 days, read-out: % of control melanin production
  activity at 30 µM: 99.8%
[3]; Melanocyte, 96 h, Table 3, 4 days, read-out: % of control melanin production
  activity at 300 µM: 57%
[3]; [4]
  activity at 100 µM: 98.1%
  activity at 230 µM: 109%
  activity at 300 µM: 109%
[3]; Melanocyte, 96 h, Table 4, dihydrophloretin 0.17 mM, trans retinol 0, read-out: melanin production as percentage of control
  activity at 170 µM: 109%
[3]; [5]
  activity at 100 µM: 99%
  activity at 230 µM: 104%
[3]; Melanocyte, 96 h, Table 5, retinol 0, n 4, read-out: % pigmentation
  activity at 300 µM: 94%
[3]; Table 4, dihydrophloretin 0.1 mM plus trans retinol 2.0 μm
  melanin production as percentage of control: 120.2 % of control
[3]; Table 4, dihydrophloretin 0.1 mM plus trans retinol 6.7 μm, *significantly less (P<0.05) than Control
  melanin production as percentage of control: 82.1 % of control
[3]; Table 4, dihydrophloretin 0.17 mM plus trans retinol 2.0 μm
  melanin production as percentage of control: 111.0 % of control
[3]; Table 4, dihydrophloretin 0.17 mM plus trans retinol 6.7 μm, *significantly less (P<0.05) than Control
  melanin production as percentage of control: 76.0 % of control
[3]; Table 4, dihydrophloretin 0.23 mM plus trans retinol 2.0 μm
  melanin production as percentage of control: 110.0 % of control
[3]; Table 4, dihydrophloretin 0.23 mM plus trans retinol 6.7 μm, *significantly less (P<0.05) than Control
  melanin production as percentage of control: 60.9 % of control
[3]; Table 4, dihydrophloretin 0.3 mM plus trans retinol 2.0 μm
  melanin production as percentage of control: 104.0 % of control
[3]; Table 4, dihydrophloretin 0.3 mM plus trans retinol 6.7 μm, *significantly less (P<0.05) than Control
  melanin production as percentage of control: 34.0 % of control
[3]; Table 5, dihydrophloretin 0.1 mM plus retinol 2.0 μM, n 1
  % pigmentation: 120%
[3]; Table 5, dihydrophloretin 0.1 mM plus retinol 6.7 μM, n 2
  % pigmentation: 86%
[3]; Table 5, dihydrophloretin 0.17 mM plus retinol 2.0 μM, n 1
  % pigmentation: 111%
[3]; Table 5, dihydrophloretin 0.17 mM plus retinol 6.7 μM, n 2
  % pigmentation: 73%
[3]; Table 5, dihydrophloretin 0.23 mM plus retinol 2.0 μM, n 1
  % pigmentation: 110%
[3]; Table 5, dihydrophloretin 0.23 mM plus retinol 6.7 μM, n 2
  % pigmentation: 55%
[3]; Table 5, dihydrophloretin 0.3 mM plus retinol 6.7 μM, n 1
  % pigmentation: 34%

## CC1=C(/C=C/C(C)=C/C=C/C(C)=C/CO)C(C)(C)CCC1 [Trans Retinol, retinol, reference compound]
[1]
  cell viability: No adverse effects
[2]
  viability at 2 µM: 100%
  viability at 6.7 µM: 100%
[3]; Melanocyte, 96 h, Table 4, trans retinol 2.0 μm, dihydrophloretin 0, read-out: melanin production as percentage of control
  activity at 2 µM: 121%
[3]; Melanocyte, 96 h, Table 4, trans retinol 6.7 μm, dihydrophloretin 0, read-out: melanin production as percentage of control
  activity at 6.7 µM: 92.9%
[3]; Melanocyte, 96 h, Table 5, retinol 2.0 μM, dihydrophloretin 0.0, n 1, read-out: % pigmentation
  activity at 2 µM: 120%
[3]; Melanocyte, 96 h, Table 5, retinol 6.7 μM, dihydrophloretin 0.0, n 2, read-out: % pigmentation
  activity at 6.7 µM: 97%
